Data: publication PMC9398180 (Molecular Cancer Therapeutics, 2021)

Tests used:
[1] = biological target: mouse LMP7 (Mus musculus, UniProt O09061+P28063); test: Cellular LMP7 activity in mouse P3X63Ag8.653 cells; assay type: cell-based
[2] = tested on: primary human cells; test: BioMAP Diversity PLUS Panel for Broad Phenotypic Profiling; assay type: cell-based
[3] = biological target: immunoproteasome subunit MECL-1 (Homo sapiens, UniProt P40306+P49720); test: Cell-free proteasome subunit peptide cleavage assay, MECL-1; assay type: biochemical
[4] = biological target: immunoproteasome subunit LMP2 (Homo sapiens, UniProt P28065+P40306); test: Cell-free proteasome subunit peptide cleavage assay, LMP2; assay type: biochemical
[5] = biological target: constitutive proteasome subunit β2 (Homo sapiens, UniProt P49720+Q99436); test: Cell-free proteasome subunit peptide cleavage assay, β2; assay type: biochemical
[6] = biological target: constitutive proteasome subunit β1 (Homo sapiens, UniProt P28072+Q99436); test: Cell-free proteasome subunit peptide cleavage assay, β1; assay type: biochemical

IC50 [1] [nM] | IC50 [3] [nM] | IC50 [4] [nM] | IC50 [5] [nM] | IC50 [6] [nM] | SMILES | cytotoxicity toward primary human B cells, PBMCs, mononuclear cells, and venular endothelial cells ([2]; 33 nmol/L) | proliferation of primary human coronary artery smooth muscle cells, endothelial cells, fibroblasts, and T cells ([2]; non-cytotoxic concentration of 11 nmol/L)
5.3 |  |  |  |  | CC(C)C[C@H](NC(=O)[C@H](Cc1ccccc1)NC(=O)c1cnccn1)B(O)O [Bortezomib] |  | 
 | 5470 | 0.9 ± 0.2 | > 30000 | 28 ± 22 | CC(C)C[C@H](NC(=O)CNC(=O)c1cc(Cl)ccc1Cl)B(O)O [Ixazomib] | cytotoxic | reduced proliferation
